Data on 1 compound can be found in ChEMBL document CHEMBL5209565, “pH biosensor based assay for SLC16A3 using HEK-293 SLC16A3 OE cells” (2022).

SMILES strings stand for the structures.

The target of this test is T1, Monocarboxylate transporter 4 (Homo sapiens) (UniProt O15427).
T1 sequence (whole entry): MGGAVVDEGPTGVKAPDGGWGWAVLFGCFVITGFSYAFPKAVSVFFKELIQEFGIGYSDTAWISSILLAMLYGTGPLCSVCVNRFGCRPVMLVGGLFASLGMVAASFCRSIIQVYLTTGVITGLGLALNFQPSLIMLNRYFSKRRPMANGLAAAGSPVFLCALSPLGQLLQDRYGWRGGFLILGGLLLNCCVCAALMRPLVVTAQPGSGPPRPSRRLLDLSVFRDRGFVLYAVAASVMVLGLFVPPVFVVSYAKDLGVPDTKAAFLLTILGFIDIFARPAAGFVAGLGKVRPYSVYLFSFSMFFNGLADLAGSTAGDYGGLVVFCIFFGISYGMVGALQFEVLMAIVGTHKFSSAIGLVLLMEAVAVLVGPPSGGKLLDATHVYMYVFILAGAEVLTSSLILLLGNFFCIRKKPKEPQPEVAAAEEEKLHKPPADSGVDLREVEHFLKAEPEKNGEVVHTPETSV
Description: Substrate uptake by the monocarboxylate transporter 4 (MCT4, SLC16A3) as assessed by a sensor pH-sensitive genetically encoded fluorescent sensor (pHAxensor) in HEK-293 JumpIN-SLC16A3 cells (PubChem AID: 1794833). The format is functional, cell-based. To be noted: HEK293.

Turning to `CC(O)C(=O)O` (stereo unspecified), the proof of principle entry was “Substrate. In Comparison To Wild-Type And Not Induced Cells, Cells With Induced Slc16A3 Expression Showed A Specific Transporter Activity, Upon Substrate Addition, Detected As Decrease Of Intracellular Ph, Recorded As Quenching Of The Sensor Fluorescence Signal”.
